Test results from the supplement of paper PMC10307832.

How the values were obtained:
Experiment in all cases: relative viability (nuclei count vs DMSO), 5 days (fraction); higher = more cells survive
[1] = compound: O=S(=O)(c1ccccc1)N(CC(F)(F)F)c1ccc(C(O)(C(F)(F)F)C(F)(F)F)cc1 + CC1(C)CCC(c2ccc(Cl)cc2)=C(CN2CCN(c3ccc(C(=O)NS(=O)(=O)c4ccc(N[C@H](CCN5CCOCC5)CSc5ccccc5)c(S(=O)(=O)C(F)(F)F)c4)cc3)CC2)C1 [Navitoclax] (partner 0.5 µM)
Procedure, shortened: (§1)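 Each reported value is a median over duplicate plates. It expresses relative viability: treated-well nuclei count divided by vehicle-well nuclei count. Lung cancer cell lines in 1536-well plates were dosed by pin tool a day after seeding, alone with one drug or with a fixed anchor-drug dose plus five library-drug doses (not always all listed) in √10 steps, and nuclei were counted after 5 days.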

RO-3306 + Crizotinib = compound: C1=CC2=C(C=CC(=C2)C=C3C(=O)NC(=NCC4=CC=CS4)S3)N=C1 [RO-3306] + C[C@@H](Oc1cc(-c2cnn(C3CCNCC3)c2)cnc1N)c1c(Cl)ccc(F)c1Cl [Crizotinib] (partner 1 µM)
Procedure, shortened: as §1

RO-3306 + Alpelisib = compound: C1=CC2=C(C=CC(=C2)C=C3C(=O)NC(=NCC4=CC=CS4)S3)N=C1 [RO-3306] + Cc1nc(NC(=O)N2CCC[C@H]2C(N)=O)sc1-c1ccnc(C(C)(C)C(F)(F)F)c1 [Alpelisib] (partner 2 µM)
Procedure, shortened: as §1

RO-3306 + Vorinostat = compound: C1=CC2=C(C=CC(=C2)C=C3C(=O)NC(=NCC4=CC=CS4)S3)N=C1 [RO-3306] + O=C(CCCCCCC(=O)Nc1ccccc1)NO [Vorinostat] (partner 1 µM)
Procedure, shortened: as §1

Cell Line | relative viability ([1]; first compound 0.8 µM) | relative viability ([1]; first compound 2.53 µM) | relative viability ([1]; first compound 8 µM) | relative viability (RO-3306 + Crizotinib; first compound 0.01 µM) | relative viability (RO-3306 + Crizotinib; first compound 0.03162 µM) | relative viability (RO-3306 + Crizotinib; first compound 0.1 µM) | relative viability (RO-3306 + Crizotinib; first compound 0.3162 µM) | relative viability (RO-3306 + Crizotinib; first compound 1 µM) | relative viability (RO-3306 + Alpelisib; first compound 0.01 µM) | relative viability (RO-3306 + Alpelisib; first compound 0.03162 µM) | relative viability (RO-3306 + Alpelisib; first compound 0.1 µM) | relative viability (RO-3306 + Alpelisib; first compound 0.3162 µM) | relative viability (RO-3306 + Alpelisib; first compound 1 µM) | relative viability (RO-3306 + Vorinostat; first compound 0.01 µM) | relative viability (RO-3306 + Vorinostat; first compound 0.1 µM) | relative viability (RO-3306 + Vorinostat; first compound 0.3162 µM) | relative viability (RO-3306 + Vorinostat; first compound 1 µM) | relative viability (RO-3306 + Vorinostat; first compound 0.03162 µM)
EBC-1 | 0.447 | 0.402 | 0.356 | 0.206 | 0.233 | 0.202 | 0.181 | 0.205 | 0.895 | 0.727 | 1.04 | 0.965 | 0.904 |  |  |  |  | 
EKVX | 0.939 | 0.918 | 0.868 | 1.05 | 0.859 | 1.03 | 1.04 | 0.894 | 0.958 | 0.833 | 0.841 | 1.02 | 0.83 | 0.75 | 0.739 | 0.663 | 0.712 | 
EMC-BAC-2 | 1.25 | 1.21 | 1.13 | 0.768 | 0.723 | 0.767 | 0.735 | 0.702 | 0.763 | 0.63 | 0.717 | 0.774 | 0.726 | 0.417 | 0.351 | 0.534 | 0.161 | 0.354
EPLC-272H | 1.24 | 1.08 | 0.795 | 0.948 | 0.841 | 0.904 | 1.03 | 0.532 | 0.927 | 0.79 | 0.909 | 0.829 | 0.972 | 0.243 | 0.386 | 0.382 | 0.198 | 0.479
H3255 | 0.537 | 0.64 | 0.503 | 0.926 | 0.836 | 0.761 | 0.916 | 0.642 | 0.576 | 0.59 | 0.632 | 0.628 | 0.6 | 0.788 | 0.802 | 0.826 | 0.819 | 0.743
HARA | 1.21 | 1.14 | 0.948 | 1.05 | 0.916 | 1.04 | 1.27 | 1.01 | 1.05 | 0.754 | 0.953 | 0.973 | 0.795 | 0.493 | 0.527 | 0.638 | 0.445 | 0.404
HCC-15 | 0.639 | 0.593 | 0.619 | 1.01 | 0.707 | 0.848 | 0.925 | 0.763 | 1.03 | 0.815 | 0.869 | 0.887 | 0.855 | 0.923 | 0.898 | 0.854 | 0.773 | 0.712
HCC-44 | 1.09 | 1.01 | 0.933 | 0.825 | 0.83 | 0.881 | 0.835 | 0.818 | 0.853 | 0.836 | 0.817 | 1.03 | 0.832 | 1.1 | 1.08 | 1.13 | 1.17 | 1.15
HCC-78 | 0.792 | 0.67 | 0.622 | 0.357 | 0.324 | 0.369 | 0.372 | 0.335 | 0.326 | 0.279 | 0.359 | 0.376 | 0.339 | 0.428 | 0.367 | 0.494 | 0.418 | 0.457
